Reference: US20080069860A1, “HYPERPHOSPHATEMIA IN DOMESTIC ANIMALS: COMPOSITIONS AND METHODS OF TREATMENT” (priority 2005, published 2008)

Key:
beagle dogs = assay: Dog study, urine phosphate excretion after oral capsules; format: in vivo; conditions: 2250 mg elemental lanthanum twice daily, urine approximately 24 hours after dosing
[1] = test system: Sprague-Dawley rats underwent 5/6th nephrectomy; assay: In vivo study in 5/6th nephrectomy rats, urine phosphorus excretion; conditions: 314 mg elemental lanthanum/kg/day oral, once daily for 14 days, compared to untreated rats
Method: Groups of six adult Sprague-Dawley rats underwent 5/6th nephrectomy in two stages over a period of 2 weeks and were then allowed to recover for a further two weeks prior to being randomized for treatment. The groups received vehicle (0.5% w/v carboxymethyl cellulose), or lanthanum oxycarbonate suspended in vehicle, once daily for 14 days by […] (10 ml/kg/day). The dose delivered 314 mg elemental lanthanum/kg/day. Dosing was carried out immediately before the dark (feeding) cycle on each day. Urine samples (24 hours) were collected prior to surgery, prior to the commencement of treatment, and twice weekly during the treatment period. Volume and phosphorus concentration were measured.
Feeding—During the acclimatization and surgery period, the animals were given Teklad phosphate sufficient diet (0.5% Ca, 0.3%P; Teklad No. TD85343), ad libitum. At the beginning of the treatment period, animals were pair fed based upon the average food consumption of the vehicle-treated animals the previous week.
5/6 Nephrectomy—After one week of acclimatization, all animals were subjected to 5/6 nephrectomy surgery. The surgery was performed in two stages. First, the two lower branches of the left renal artery were ligated. One week later, a right nephrectomy was performed. […]

dogs = assay: Palatability study in dogs; format: in vivo; conditions: 9 dogs, during hours post meal
Description: Lanthanum oxycarbonate was mixed with wet and dry dog food and presented to 9 different dogs, almost all over 40 pounds.

Compound	urine phosphate excretion, a marker of phosphorous binding (beagle dogs)	phosphorus excretion (urine), a marker of dietary phosphorus binding [1]	signs of nausea, vomiting, bloating or flatus (dogs)
O=C([O-])[O-].[La+3].[OH-] [compound A, LaCO3OH]	reduction of urine phosphate excretion		
O=C([O-])[O-].[La+3].[La+3].[O-2].[O-2] [compound B, La2O2CO3]	reduction of urine phosphate excretion		
O=C([O-])[O-].[La+3].[OH-] [lanthanum carbonate hydroxide]		decrease in phosphorus excretion	
lanthanum oxycarbonate		decrease in phosphorus excretion	None of the dogs exhibited signs of nausea, vomiting, bloating or flatus
